Measured values published in the NIST ThermoML archive (doi:10.1007/s10765-008-0506-x).
± gives the expanded uncertainty stated by the source.

Legend:
[1] = xn = mol fraction of the nth substance listed; details: Liquid, Hot wire method
[2] = 294.2 K, Liquid, Hot wire method

CCCCn1cc[n+](C)c1.F[P-](F)(F)(F)(F)F [1-butyl-3-methylimidazolium hexafluorophosphate] + O=C=O
thermal conductivity [W/m/K], [1]
Details	x2 = 0.108	x2 = 0.22	x2 = 0.328	x2 = 0.42
294.4 K, 10000 kPa	0.148 ± 0.005	0.149 ± 0.005	0.15 ± 0.005	0.148 ± 0.005
294.4 K, 20000 kPa	0.15 ± 0.005	0.151 ± 0.005	0.152 ± 0.005	0.149 ± 0.005
314.5 K, 10000 kPa	0.149 ± 0.005	0.149 ± 0.005	0.152 ± 0.005	0.148 ± 0.005
314.5 K, 20000 kPa	0.151 ± 0.005	0.152 ± 0.005	0.153 ± 0.005	0.148 ± 0.005
334.2 K, 10000 kPa	0.148 ± 0.005	0.15 ± 0.005	0.15 ± 0.005	0.148 ± 0.005
334.2 K, 20000 kPa	0.151 ± 0.005	0.152 ± 0.005	0.151 ± 0.005	0.149 ± 0.005

CCCCn1cc[n+](C)c1.F[B-](F)(F)F [1-butyl-3-methylimidazolium tetrafluoroborate] + O=C=O
thermal conductivity [W/m/K], [1]
Details	294.2 K	314.3 K	334.3 K
10000 kPa, x2 = 0.169	0.173 ± 0.005	0.173 ± 0.005	0.173 ± 0.005
10000 kPa, x2 = 0.308	0.17 ± 0.005	0.169 ± 0.005	0.169 ± 0.005
10000 kPa, x2 = 0.422	0.171 ± 0.005	0.17 ± 0.005	0.169 ± 0.005
20000 kPa, x2 = 0.169	0.174 ± 0.005	0.175 ± 0.005	0.175 ± 0.005
20000 kPa, x2 = 0.308	0.172 ± 0.005	0.17 ± 0.005	0.17 ± 0.005
20000 kPa, x2 = 0.422	0.171 ± 0.005	0.17 ± 0.005	0.169 ± 0.005

Cn1ccnc1 [1-methylimidazole]
[2]
Details	thermal conductivity [W/m/K]
10000 kPa	0.194 ± 0.006
20000 kPa	0.196 ± 0.006

Cn1ccnc1 [1-methylimidazole] + O=C=O
thermal conductivity [W/m/K], [1], 294.2 K
Details	x2 = 0	x2 = 0.157	x2 = 0.261	x2 = 0.337	x2 = 0.43
10000 kPa	0.194 ± 0.006	0.187 ± 0.006	0.184 ± 0.006	0.18 ± 0.005	0.176 ± 0.005
20000 kPa	0.196 ± 0.006	0.19 ± 0.006	0.187 ± 0.006	0.184 ± 0.006	0.18 ± 0.005
